From patent publication US6370478B1, “Methods for drug interaction prediction using biological response profiles” (Rosetta Inpharmatics, Inc., priority 1998, dated 2002)

Legend:
wild type yeast cells = conditions: 10 micrograms/ml; Gari et al., 1997; cited from earlier work
[1] = test system: Yeast (Saccharomyces cerevisiae, Strain YPH499) mRNA transcripts; assay: Yeast mRNA response profiles measured with DNA microarrays (transcript measurement); format: cell-based
Protocol: Experimental methods were described in Marton et al., 1998, Drug Target Validation And Identification of Secondary Drug Target Effects Using DNA Microarrays, NATURE-MEDICINE 4:1293-301, incorporated herein by reference for all purposes. Dose response curves are plotted only for about 50 genes with the largest responses. […] In this case, any concentration near or above about 1 μg/ml would be informative, and the choice could be refined based on knowledge of the significance of the set of genes that responds at the higher concentrations.
The following experimental methods were used for all the examples. Specific experimental design is described by the examples and their accompanying figures. The specific protocol was also described in Marton et al., 1998, Drug Target Validation And Identification of Secondary Drug Target Effects Using DNA Microarrays, NATURE-MEDICINE 4:1293-301.
Yeast (Saccharomyces cerevisiae, Strain YPH499, see, Sikorski and Hieter, 1989, A system of shuttle vectors and yeast host strains designated for efficient manipulation of DNA in Saccharomyces cerevisiae, Genetics 122:19-27) cells were grown in YAPD at 30° C. to an OD600 of 1.0 (±0.2), and total RNA prepared by breaking cells in phenol/chloroform and 0.1 % SDS by standard procedures (Ausubel et al., 1995, Current Protocols in Molecular Biology, Greene Publishing and Wiley-Interscience, New York, Ch. 13). Poly(A)^+ RNA was selected by affinity chromatography on oligo-dT cellulose (New England Biolabs) essentially as described in Sambrook et al. (Molecular Cloning—A Laboratory Manual (2nd Ed.), Vol. 1, Cold Spring Harbor Laboratory, Cold Spring Harbor, N.Y., 1989). […]
Fluorescently-labeled cDNAs (2-6 μg) are resuspended in 4×SSC plus 1 μg/μl tRNA as carrier and filtered using […] filters (Millipore, Bedford, Mass.). […] Microarrays were scanned with a fluorescence laser-scanning device as previously described (Schena et al., 1995, Science 270:467-470; Schena et al., 1995, Proc. Natl. Acad. Sci. USA 93:[…]) and the results (including the positions of perturbations) are recorded.

## C[C@H]1c2cccc(O)c2C(=O)C2=C(O)[C@]3(O)C(=O)C(C(N)=O)=C(O)[C@@H](N(C)C)[C@@H]3[C@@H](O)[C@@H]21 [doxycycline]
Wild type yeast cells
  effect on the growth rate: no significant effect

## Clc1ccccc1C(c1ccccc1)(c1ccccc1)n1ccnc1 [Clotrimazole]
[1]; FIG. 4, overlap with effects of opposite sign
  relationship of the response profiles of Clotrimazole and Cyclosporin A: anti-correlation

## C=CC[C@@H]1/C=C(\C)C[C@H](C)C[C@H](OC)[C@H]2O[C@@](O)(C(=O)C(=O)N3CCCC[C@H]3C(=O)O[C@H](/C(C)=C/[C@@H]3CC[C@@H](O)[C@H](OC)C3)[C@H](C)[C@@H](O)CC1=O)[C@H](C)C[C@@H]2OC [FK506]
[1]; FIG. 1, dose response of about 50 genes with the largest responses
  concentration at which genes mediated by the primary target (calcineurin) reach saturation response: about 1 μg/ml
[1]; FK506 (1.6 μg/ml) vs Cyclosporin A (30 μg/ml), genes with significant up and down regulations at the 95% confidence level, FIG. 3
  correlation coefficient between the two drug response profiles: 0.86
